The test system of data set [1] is B16-F10 cells. The conditions noted are these: mouse, pH 4.4.
Experimental: The trypan blue test was used to determine membrane integrity. Trypan blue dye will only penetrate into cells that have porous membranes. […] The protocol used was similar to the methods described for the delivery of calcein. After one hour of exposure at 37° the cells were washed three times with 500 μl aliquots of PBS. Liquid from the last wash was carefully aspirated, and then filled with 500μl of growth media.
For the purpose of this study, optimal testing conditions were used to treat B16-F10 cells to conclude the extent of reversible permeation.
Due to the large surface area of the wells, the cells were physically counted by observing 7 out of 21 fields of view along the horizontal diameter of each well at a magnification of 400× (see FIG. 5). The recovery of the membranes after exposure to each treating condition was expressed as a percentage of live cells remaining after each hour.
In order to distinguish the viable cells from the dead, a 0.4% trypan blue solution in PBS was used. 150 μl of the solution was added to each well for 1 minute, and then the cells were counted using the described method. Each test condition was studied at 1 hour intervals ranging from 1 hour to 4 hours. In addition, membrane recovery was examined 24 hours post treatment.
Data set [2] relates to B16-F10 cells. In words: Delivery of calcein to B16-F10 cells with or without electroporation, spectrofluorometric reading of cell lysate. Format: cell-based, mouse. On the procedure:
The effects of salicylic acid (“SA”) on the delivery of calcein to B16-F10 cells using electroporation was studied. Three identical experiments were carried out. […] All cells were exposed to 120 μM calcein. In addition, cells in some samples were exposed to one of three different concentrations of salicyclic acid (1 mM, 5 mM, or 10 mM) with pH values of 6.70, 6.32, and 3.85, respectively. Pulses with one of four different field strengths were also applied (500, 750, 1000, or 1385 V/cm) to certain samples. Salicyclic acid concentration and field strength were experimental variables; however, some cells were not exposed to applied fields or salicyclic acid for comparison/control purposes.
Delivery of calcein using aspirin (acetylsalicylic acid or “ASA”) was studied. […] The same range of pulsing conditions was used and the variables were identical for the sample treatment.
Calcein delivery by electroporation using acetic acid (“AA”) as an effector was studied. The set of 3 replicate experiments included three concentrations of AA, each with a different pH (4.40, 5.36, or 6.42). The pH values of the three solutions of acetic acid were matched to those of ASA for the purpose of determining if AA is the derivative in ASA that enhances the delivery of calcein. The three concentrations of the AA solutions in PBS were similar, which was about 0.15%, and varied slightly in order to establish the desired pH value. In addition, one of three electric field strengths were applied to cells (500, 750. or 1000 V/cm). Some cells were not exposed to applied fields or any concentration of AA for purposes of comparison and control.
B16-F10 mouse melanoma cells (ATCC#:CRL-6475) were obtained and grown in McCoy's Media (Cellgro Mediatech, Inc., Herndon. VA), adjusted to contain 10% fetal bovine serum (Cellgro Mediatech, Inc.) and (25 mg) gentamicin 50 mg/mL (Mediatech, Inc.) and were incubated in 5% CO2 at 37° C. Serum was essential for many reasons. It provided hormonal factors that stimulated cell growth and function. It also contains essential proteins, amino acids, minerals, and lipids. Gentamicin is an antibiotic used as a preventative measure to help reduce microbial growth and contamination.
Cells were prepared for experiments by first harvesting by trypsinization and then washing 3 times by centrifugation. Cells were centrifuged (5810R, Eppendorf, Westbury, N.Y.) at 220× g for 5 minutes at 37° C. and resuspended in approximately 2.5 ml of PBS for each wash. A sample of cells was then diluted in 0.9% sodium chloride (APP, Schaumburg, Ill.) and 0.4% trypan blue stain (Cellgro Mediatech, Inc.). Trypan blue is an indicator in which the membranes of non-viable cells are penetrated and can be distinguished from the viable cells. Using a hemacytometer (Hausser Scientific, Horsham, Pa.), the viable and nonviable cells were counted. The number of cells per milliliter was computed by multiplying the number of cells counted per square millimeter×the dilution (when used)×10,000 (conversion factor).
Experiments were conducted using 48-well polystyrene tissue culture plates (BD Falcon. Franklin Lakes, N.J.). Each well held approximately 1.4 ml of liquid with a surface area of 0.75 cm^2. The depth and diameter of each well was 18 mm and 10 mm, respectively.
Under aseptic conditions, 150μl of the sterile gelatin solution was added to each well and let stand for 1 hour. The gelatin was then aspirated from each of the wells and air dried for 5 minutes. 500μl of McCoy's Media was added to the treated wells in addition to 7.5×10^4 viable cells and incubated at 37° C. for 18 hours before treatment.
The electrode shown in FIG. 2 was specially designed for all experimentation in these studies and was similar to the design mentioned above. The electrode consisted of 6 stainless steel electrodes, equally spaced at 60° intervals around a 0.7 cm diameter circle.

Regarding `CC(=O)O` [AA, acetic acid], the “decline in the number of cells with intact membranes” value in data set [1] (1 h) was 17%. In addition, in data set [1] (24 h), the “cells that excluded trypan blue dye” value is listed as 86%. Further, in data set [1] (24 h), the “cells with intact membranes” value is recorded as 90%. For the same compound, the average membrane integrity in data set [1] was 80-95%. Moreover, the “fluorescence magnitude compared to samples not exposed to AA” value in data set [2] (AA about 0.15% in PBS, pH 5.36 or 6.42, with or without pulses) is reported as “failed to show a significant increase”. In addition, in data set [2] (AA lowest pH solution (pH 4.40) in combination with electric fields), the “fluorescent data compared to AA alone (no pulses)” value is listed as “even higher”. Also, the mean fluorescence magnitude in data set [2] (AA pH 4.40, 500 V/cm) is reported as 12.77; in data set [2] (AA pH 4.40 alone, no pulses) it was 1.04. In addition, the “increase in fluorescence magnitude vs samples not exposed to AA at same field” value in data set [2] (AA pH 4.40, 500 V/cm, p<0.0001) is recorded as 3 fold; in data set [2] (AA pH 4.40, 750 V/cm, p=0.0002), 2.25 fold; in data set [2] (AA pH 4.40, 1000 V/cm, p<0.0001), 3.5 fold. Moreover, the “increase in mean fluorescence vs control (no AA or pulses)” value in data set [2] (AA pH 4.40 alone, no pulses) is listed as 8.2 fold.

With `CC(=O)Oc1ccccc1C(=O)O` [ASA, acetylsalicylic acid], the “fluorescence magnitude compared to calcein alone (no ASA)” value in data set [2] (1 mM or 5 mM ASA alone (pH 6.39, 5.40), no pulses) is on record as “did not result in a significant increase”. Also, the “increase in fluorescence magnitude relative to calcein at same field (no ASA)” value in data set [2] (10 mM ASA, 500 V/cm, p<0.0001) is 3.7 fold; in data set [2] (10 mM ASA, 750 V/cm, p 0.0011), 3.82 fold; in data set [2] (10 mM ASA, 1000 V/cm, p 0.0014), 3.57 fold; in data set [2] (10 mM ASA, 1385 V/cm, p 0.0066), 3.18 fold. In data set [2] (10 mM ASA, no pulses, p<0.0001), the “increase in internalized calcein vs control (calcein, no ASA or pulses)” value is listed as 5 fold. Moreover, in data set [2] (1 and 5 mM ASA, with electric fields), the “mean fluorescence magnitude compared to samples exposed to electric fields alone (no ASA)” value was “not significantly different”. In addition, the average fluorescent magnitude in data set [2] (calcein in 10 mM ASA (pH 4.40), no pulses) is reported as 4.28 (SEM=0.63).

With `O=C(O)c1ccccc1O` [SA, salicylic acid], the “calcein delivery compared to samples exposed to calcein alone” value in data set [2] (1, 5 or 10 mM SA (pH 6.70, 6.32, 3.85), 120 μM calcein, no applied electric field) was “did not augment the delivery”. Besides, the “fluorescent magnitude compared to samples treated with calcein and pulses (no salicylic acid)” value in data set [2] (1, 5 or 10 mM SA, 120 μM calcein, electrical pulses 500-1385 V/cm) was “not significantly higher”.

The record behind these values is patent US20070122908A1, “Molecular Delivery to Cells Using Aspirin-Related Compounds” (UNIVERSITY OF SOUTH FLORIDA, priority 2005, published 2007).
